Like-named read-outs stand apart in the source and are kept apart here.
What was measured:
[1] = set-up: method as in Cao W. et al., 2023; conditions: 30 mg amdizalisib capsules, fed condition, Chinese healthy volunteers ref Cao W. et al., 2023; cited from earlier work
[2] = Plasma pharmacokinetics of amdizalisib (LC-MS/MS) after a single oral dose of [14C]amdizalisib suspension; assay type: in vivo, human; conditions: for CL/F: amdizalisib in plasma, single oral 30 mg/100 µCi suspension, mean ± SD
Protocol: Six subjects were admitted to the clinical research center 1 day prior to dosing, with random urine and fecal samples collected as blank excretion controls. After fasting overnight for at least 10 h, a blank blood sample was collected after a regular breakfast (449 kcal, with ∼35% energy from fat) on Day 1. […] It is noteworthy that the medication administration duration for each subject was strictly kept within 10 min. Scheduled collection of urine, feces, and blood samples, and safety monitoring proceeded until completion.
Venous blood samples were collected within 0.5 h prior to administration and at 0.5, 1, 1.5, 2, 3, 4, 6, 8, 12, 24, 36, 48, 72, and 96 h after administration. About 8 mL of blood was collected at each time point in the anticoagulant collection tube containing K2-EDTA. The centrifuged plasma was used for non-radioactive and radioactive pharmacokinetic and biotransformation (metabolite) analyses. In addition, about 2 mL of venous blood was collected within 0.5 h before administration and at 1, 4, 8, 12, 24, and 48 h after administration for whole blood radioactivity analysis. Additional 10 mL of venous blood for each time point was collected at 1, 4, 8, 12, 24, and 48 h after administration, and the plasma was obtained by centrifugation for biotransformation (metabolites) analysis. Urine and fecal samples were collected until 144 h (4 subjects) or 192 h (2 subjects) after administration.
Chromatographic separation was achieved on an XBridge C18 column, maintained at 40°C, with a mobile phase consisting of 2 mM ammonium formate in water (A) and methanol (B). A gradient elution was employed at a flow rate of 0.6 mL/min. The autosampler was set to 5°C, with an injection volume of 5 μL. […] Each analytical run included calibration standards and quality control samples to ensure method accuracy and precision. The corrected total concentration data of labelled (^14C) and unlabeled (^12C) analytes were given directly by Analyst data processing software. The standard curve consists of 0.500, 1.00, 2.00, 10.0, 50.0, 200, 450, 500 ng/mL. The quality control (QC) sample concentrations were 0.5 (lower limit of quantification QC), 1.50 (lower QC), 20.0 (low to medium QC), 250 (medium QC), 400 (high QC) ng/mL, respectively.
Pharmacokinetic analysis was performed using Phoenix WinNonlin® software version 8.3. […] Non-compartmental model was used to estimate the main PK parameters. Descriptive statistics applied to parameters including maximum plasma concentration after administration (Cmax), the time to reach maximum plasma concentration after administration (Tmax), elimination rate constant (λz), area under the plasma concentration-time curve from the time 0 to the time of last quantifiable concentration (AUC0-t, obtained by the linear trapezoidal method), area under the plasma concentration-time curve from time 0 extrapolated to infinity (AUC0-∞, AUC0-∞ = AUC0-t + Ct/λ z ), half-life (t1/2, t1/2 = ln ([…])/λz), mean residence time (MRT, MRT = AUMC/AUC), apparent clearance (CL/F, CL/F = Dose/AUC0-∞), apparent volume of distribution based on terminal phase (Vz/F, Vz/F = Dose/(λz×AUC0-∞)).

[3] = Safety and tolerability evaluation; conditions: for serious adverse events or deaths: 6 healthy Chinese males
Protocol: The safety of the subjects was assessed by adverse events, laboratory test results, vital signs, and 12-lead electrocardiogram (ECG). AEs were recorded from the time of administration and serious adverse events (SAE) were recorded from the time that subjects signed the informed consent. Subjects with elevated aspartate aminotransferase (AST) and/or alanine aminotransferase (ALT) levels (≥3 × ULN) combined with elevated serum total bilirubin (≥2 × ULN) or clinical jaundice in the same blood sample should be recorded as a specific adverse event.

## C[C@H](Nc1ncnc(N)c1C#N)c1cc2ncc(Cl)n2nc1-c1ccccc1 [Amdizalisib]
[1]
  AUC0-∞: 1,574 h٠ng/mL
  Cmax: 0.152 µg/mL
[2]
  CL/F: 16.8 ± 4.44 L/h
[2]; listed as amdizalisib
  CL/F: 16.8 L/h
[2]; male, human, plasma, oral, 30 mg, below the lower quantifiable limit in 4 of 6 subjects, detectable in 2
  concentration at 72 h: < 0.0005 µg/mL
[2]; male, human, plasma, po, 30 mg
  AUC(0-inf): 1.88 ± 0.478 µg·h/mL
  AUC(0-t): 1.87 ± 0.474 µg·h/mL
  Cmax: 0.244 ± 0.0489 µg/mL
  half-life: 8.34 ± 2.43 h
[2]; male, human, plasma, po, 30 mg, read-out: MRT0-t
  MRT last: 9.65 ± 1.48 h
[2]; male, human, plasma, po, 30 mg, read-out: Vz/F
  Vd/F: 192 ± 28 L
[3]; 5 of 6 subjects, single oral 30 mg/100 µCi
  subjects reporting TEAEs: 83.3%
[3]
  serious adverse events or deaths: No serious adverse events or drug-related deaths occured
[3]; listed as amdizalisib
  serious adverse events or deaths: No subjects reported serious adverse events or adverse events leading to death
[3]; all TEAEs, considered study drug related
  severity of TEAEs: grade 1
[3]; four subjects
  subjects reporting diarrhea as TEAE: 66.7%
[3]; throughout the study, 6 subjects
  number of TEAEs reported: 11
[3]; two subjects, shortened ECG PR, elevated low-density lipoprotein, positive urine white blood cells
  subjects reporting abnormal laboratory test results: 33.3%
